Consider 15 compounds from patent publication US12686673B2 (Blueprint Medicines Corporation, priority 2020, dated 2026).

In general, IC50 refers to the concentration that gives 50% inhibition.

Holding throughout (format): cell-based
For experiment [1], the target named is EGFR(D770_N771insSVD) expressing Ba/F3 stable cell line (Homo sapiens, UniProt P00533, DUP768-770, cells depend on it). Nature of the experiment: Cellular proliferation (Alamar Blue) assay, EGFR D770_N771insSVD Ba/F3. Conditions: 72 hr, read-out: D770 IC50. The method in brief:
(§1)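 Ba/F3 stable lines (15,000 cells/well, RPMI + 10% FBS) seeded 16–18 h, then treated 72 h at 37 °C with compound, final 10–0.0005 μM in 3-fold dilutions. Viability read by Alamar Blue after 3 h incubation.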
(The colour change of resazurin is a common sign of viable cells or microbes.)

The target in experiment [2] is EGFR (A767_dupASV) expressing Ba/F3 stable cell line (Homo sapiens, UniProt P00533, DUP767-769, cells depend on it). The experiment in a line: Cellular proliferation (Alamar Blue) assay, EGFR A767_dupASV Ba/F3. The note with it: 72 hr, read-out: A767 IC50. The method in brief:
as §1

In a further experiment the test system is A431 cells. The experiment in a line: Cellular proliferation (Alamar Blue) assay, A431.
Experiment [3] has as its target EGFR (H773insNPH) expressing Ba/F3 stable cell line (Homo sapiens, UniProt P00533, DUP771-773, cells depend on it). The experiment in a line: Cellular proliferation (Alamar Blue) assay, EGFR H773insNPH Ba/F3. The note with it: 72 hr, read-out: NPH IC50. In outline:
as §1

Experiment [4] deals with HER2 (A775_G776insYVMA) expressing Ba/F3 stable cell line (Homo sapiens, UniProt P04626, DUP772-775, cells depend on it). Nature of the experiment: Cellular proliferation (Alamar Blue) assay, HER2 A775_G776insYVMA Ba/F3. The note with it: 72 hr, read-out: YVMA IC50. The method in brief:
as §1

Where [5] appears, read: Homo sapiens, A-431; A431 cells, Alamar Blue, 72 hr; read-out: A431 IC50.
Setting [6] is: Homo sapiens, A-431; A431 cells, 72 hr, Alamar Blue; read-out: A431 IC50.

Where a name gives a salt, the structure may show the parent alone. Read-outs that look alike come from different tables or passages of the source. Where only a bound is given, the exact number is not on record here.

Sequence of EGFR (H773insNPH) expressing Ba/F3 stable cell line (P00533 with tags, fused parts or gaps DUP771-773): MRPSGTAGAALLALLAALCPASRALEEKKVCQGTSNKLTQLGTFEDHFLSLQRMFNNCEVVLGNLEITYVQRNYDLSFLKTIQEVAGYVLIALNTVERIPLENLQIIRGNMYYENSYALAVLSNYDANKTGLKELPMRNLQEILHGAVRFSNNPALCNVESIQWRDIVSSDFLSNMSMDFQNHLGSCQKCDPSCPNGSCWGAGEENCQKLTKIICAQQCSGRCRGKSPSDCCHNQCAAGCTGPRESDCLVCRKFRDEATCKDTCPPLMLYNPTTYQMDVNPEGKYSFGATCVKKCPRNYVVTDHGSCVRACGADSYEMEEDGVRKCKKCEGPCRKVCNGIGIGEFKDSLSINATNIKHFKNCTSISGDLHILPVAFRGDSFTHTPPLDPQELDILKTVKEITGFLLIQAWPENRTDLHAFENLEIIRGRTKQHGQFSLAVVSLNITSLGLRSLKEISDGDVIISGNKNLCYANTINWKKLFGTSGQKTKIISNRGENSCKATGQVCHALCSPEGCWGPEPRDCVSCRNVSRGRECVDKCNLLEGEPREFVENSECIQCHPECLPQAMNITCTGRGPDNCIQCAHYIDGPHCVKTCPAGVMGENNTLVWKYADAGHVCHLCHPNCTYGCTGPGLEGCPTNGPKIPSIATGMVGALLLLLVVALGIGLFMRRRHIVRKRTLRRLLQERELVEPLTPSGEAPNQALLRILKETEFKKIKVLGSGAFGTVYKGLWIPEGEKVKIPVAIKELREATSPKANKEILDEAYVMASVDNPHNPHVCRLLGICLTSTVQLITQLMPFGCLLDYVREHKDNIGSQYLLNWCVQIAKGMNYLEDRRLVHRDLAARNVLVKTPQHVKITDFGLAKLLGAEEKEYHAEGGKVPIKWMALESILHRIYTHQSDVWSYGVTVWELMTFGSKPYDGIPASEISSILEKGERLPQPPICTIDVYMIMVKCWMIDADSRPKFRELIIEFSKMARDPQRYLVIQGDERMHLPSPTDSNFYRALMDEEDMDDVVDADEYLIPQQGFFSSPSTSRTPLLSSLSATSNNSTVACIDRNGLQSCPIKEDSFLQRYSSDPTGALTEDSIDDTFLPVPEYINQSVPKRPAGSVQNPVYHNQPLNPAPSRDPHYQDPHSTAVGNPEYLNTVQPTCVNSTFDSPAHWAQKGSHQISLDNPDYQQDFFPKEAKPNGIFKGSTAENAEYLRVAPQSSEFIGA
Sequence of EGFR (A767_dupASV) expressing Ba/F3 stable cell line (P00533 with tags, fused parts or gaps DUP767-769): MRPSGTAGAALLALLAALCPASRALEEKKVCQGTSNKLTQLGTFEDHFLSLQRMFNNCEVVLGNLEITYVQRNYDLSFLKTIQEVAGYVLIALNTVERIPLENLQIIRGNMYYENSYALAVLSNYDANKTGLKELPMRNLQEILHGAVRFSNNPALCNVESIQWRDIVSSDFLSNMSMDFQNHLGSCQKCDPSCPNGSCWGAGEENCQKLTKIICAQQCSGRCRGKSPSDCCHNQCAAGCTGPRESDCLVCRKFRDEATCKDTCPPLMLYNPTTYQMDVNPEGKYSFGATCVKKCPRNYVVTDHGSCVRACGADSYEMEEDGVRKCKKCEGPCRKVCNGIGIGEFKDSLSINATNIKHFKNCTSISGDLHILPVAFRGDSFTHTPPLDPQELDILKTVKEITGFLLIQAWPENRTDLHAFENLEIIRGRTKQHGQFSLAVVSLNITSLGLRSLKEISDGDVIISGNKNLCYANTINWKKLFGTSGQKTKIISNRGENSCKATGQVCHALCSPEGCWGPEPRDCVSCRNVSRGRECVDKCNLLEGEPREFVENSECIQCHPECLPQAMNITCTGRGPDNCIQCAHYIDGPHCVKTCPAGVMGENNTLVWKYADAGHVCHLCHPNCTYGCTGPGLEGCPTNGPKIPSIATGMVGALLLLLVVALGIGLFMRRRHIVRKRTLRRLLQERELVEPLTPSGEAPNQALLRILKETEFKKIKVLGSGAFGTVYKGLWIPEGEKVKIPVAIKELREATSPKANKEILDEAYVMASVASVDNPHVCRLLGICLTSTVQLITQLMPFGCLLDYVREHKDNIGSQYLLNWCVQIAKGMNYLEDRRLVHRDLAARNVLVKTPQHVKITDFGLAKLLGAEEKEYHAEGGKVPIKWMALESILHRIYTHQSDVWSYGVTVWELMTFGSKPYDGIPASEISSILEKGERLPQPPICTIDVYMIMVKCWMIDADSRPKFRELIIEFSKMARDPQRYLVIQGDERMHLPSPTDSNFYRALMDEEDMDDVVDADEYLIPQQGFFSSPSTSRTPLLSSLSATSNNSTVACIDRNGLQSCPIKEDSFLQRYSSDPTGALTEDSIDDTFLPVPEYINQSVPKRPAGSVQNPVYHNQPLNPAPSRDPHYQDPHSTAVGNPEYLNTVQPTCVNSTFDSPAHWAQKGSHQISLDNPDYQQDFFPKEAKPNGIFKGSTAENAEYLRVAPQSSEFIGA
Sequence of HER2 (A775_G776insYVMA) expressing Ba/F3 stable cell line (P04626 with tags, fused parts or gaps DUP772-775): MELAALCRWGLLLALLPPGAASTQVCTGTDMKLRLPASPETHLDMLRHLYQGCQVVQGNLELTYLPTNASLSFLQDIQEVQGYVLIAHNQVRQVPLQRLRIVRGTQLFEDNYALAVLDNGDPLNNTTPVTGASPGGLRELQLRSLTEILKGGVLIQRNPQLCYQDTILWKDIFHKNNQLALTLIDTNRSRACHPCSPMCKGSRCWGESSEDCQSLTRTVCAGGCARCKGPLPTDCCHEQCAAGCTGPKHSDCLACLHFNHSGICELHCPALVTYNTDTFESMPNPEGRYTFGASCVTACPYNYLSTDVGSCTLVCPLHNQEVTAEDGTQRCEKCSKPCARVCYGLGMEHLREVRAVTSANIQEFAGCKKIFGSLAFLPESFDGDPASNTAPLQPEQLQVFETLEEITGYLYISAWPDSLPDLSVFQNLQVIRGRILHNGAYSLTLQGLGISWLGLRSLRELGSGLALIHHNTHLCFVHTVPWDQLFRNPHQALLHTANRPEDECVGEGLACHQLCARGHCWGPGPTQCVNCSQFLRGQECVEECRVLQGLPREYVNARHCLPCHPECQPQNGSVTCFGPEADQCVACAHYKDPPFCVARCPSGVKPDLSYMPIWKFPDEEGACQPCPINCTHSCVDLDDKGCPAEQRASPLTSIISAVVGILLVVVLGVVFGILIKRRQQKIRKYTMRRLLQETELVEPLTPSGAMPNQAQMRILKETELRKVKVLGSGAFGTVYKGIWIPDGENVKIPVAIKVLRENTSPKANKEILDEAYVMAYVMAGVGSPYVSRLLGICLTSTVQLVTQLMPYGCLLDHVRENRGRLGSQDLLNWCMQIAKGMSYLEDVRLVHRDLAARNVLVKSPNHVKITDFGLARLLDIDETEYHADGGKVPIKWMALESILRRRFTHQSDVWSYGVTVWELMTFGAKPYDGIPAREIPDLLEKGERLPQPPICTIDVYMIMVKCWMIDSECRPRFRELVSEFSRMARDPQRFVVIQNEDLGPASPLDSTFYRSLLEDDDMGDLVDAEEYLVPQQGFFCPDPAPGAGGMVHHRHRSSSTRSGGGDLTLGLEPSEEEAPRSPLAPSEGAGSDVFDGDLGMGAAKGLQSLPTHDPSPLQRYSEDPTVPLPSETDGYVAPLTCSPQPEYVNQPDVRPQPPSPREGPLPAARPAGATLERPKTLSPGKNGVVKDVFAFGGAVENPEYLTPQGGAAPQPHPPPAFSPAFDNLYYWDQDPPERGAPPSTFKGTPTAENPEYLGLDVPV
Sequence of EGFR(D770_N771insSVD) expressing Ba/F3 stable cell line (P00533 with tags, fused parts or gaps DUP768-770): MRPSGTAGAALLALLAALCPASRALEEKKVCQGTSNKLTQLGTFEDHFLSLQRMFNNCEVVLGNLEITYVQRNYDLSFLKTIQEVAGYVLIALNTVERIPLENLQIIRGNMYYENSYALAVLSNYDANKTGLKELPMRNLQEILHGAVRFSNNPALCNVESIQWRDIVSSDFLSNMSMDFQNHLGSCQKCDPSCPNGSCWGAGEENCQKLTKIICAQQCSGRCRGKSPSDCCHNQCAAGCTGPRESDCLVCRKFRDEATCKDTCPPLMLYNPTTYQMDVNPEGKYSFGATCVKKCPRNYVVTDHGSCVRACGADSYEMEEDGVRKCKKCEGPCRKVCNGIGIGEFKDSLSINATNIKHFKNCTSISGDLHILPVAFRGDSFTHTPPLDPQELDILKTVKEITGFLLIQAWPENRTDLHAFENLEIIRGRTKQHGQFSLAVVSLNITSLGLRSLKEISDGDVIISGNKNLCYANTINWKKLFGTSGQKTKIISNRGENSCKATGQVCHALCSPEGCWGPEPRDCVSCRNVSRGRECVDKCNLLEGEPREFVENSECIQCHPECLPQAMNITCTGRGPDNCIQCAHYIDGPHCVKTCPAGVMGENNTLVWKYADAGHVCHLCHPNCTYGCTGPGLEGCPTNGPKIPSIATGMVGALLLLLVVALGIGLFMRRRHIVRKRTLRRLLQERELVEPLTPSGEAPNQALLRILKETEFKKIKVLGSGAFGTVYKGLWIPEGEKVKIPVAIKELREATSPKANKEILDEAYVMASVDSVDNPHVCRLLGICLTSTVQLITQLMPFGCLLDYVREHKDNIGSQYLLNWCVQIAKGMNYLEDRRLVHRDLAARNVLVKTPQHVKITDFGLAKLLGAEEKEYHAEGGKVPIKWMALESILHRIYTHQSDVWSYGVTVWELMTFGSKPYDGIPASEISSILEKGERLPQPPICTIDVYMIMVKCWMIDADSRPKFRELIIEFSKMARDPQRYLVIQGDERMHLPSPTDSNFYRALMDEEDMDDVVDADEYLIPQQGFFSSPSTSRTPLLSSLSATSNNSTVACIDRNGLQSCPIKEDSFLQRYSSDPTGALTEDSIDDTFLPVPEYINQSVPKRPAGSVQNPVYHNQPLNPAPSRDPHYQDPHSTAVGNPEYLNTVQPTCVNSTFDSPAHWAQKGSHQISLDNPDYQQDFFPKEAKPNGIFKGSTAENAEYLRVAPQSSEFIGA

Take `C=CC(=O)Nc1ccc(F)c(Nc2nc(Nc3cnn(C4COC4)c3)ncc2-c2ccc(C(F)(F)F)cc2)c1` [Compound 139, N-(4-fluoro-3-((2-((1-(oxetan-3-yl)-1H-pyrazol-4-yl)amino)-5-(4-(trifluoromethyl)phenyl)pyrimidin-4-yl)amino)phenyl)acrylamide]: the GI50 was 116 nM in experiment [1], 125 nM in experiment [2], 148 nM in experiment [3] and 690 nM in experiment [4]. Moreover, the IC50 with A431 cells (setting [5]) is more than 10000 nM.
As for `C=CC(=O)Nc1ccc(F)c(Nc2nc(Nc3cnn(C)c3)ncc2-c2ccc(C(F)F)cc2)c1` [Compound 99, N-(3-((5-(4-(difluoromethyl)phenyl)-2-((1-methyl-1H-pyrazol-4-yl)amino)pyrimidin-4-yl)amino)-4-fluorophenyl)acrylamide], the GI50 in experiment [1] came to 37 nM; in experiment [2], 96 nM; in experiment [3], 75 nM; in experiment [4] it was 171 nM. Besides, the IC50 with A431 cells (setting [5]) was 67 nM.
On to `C=CC(=O)Nc1cccc(Oc2nc(Nc3cnn(C)c3)ncc2-c2ccc(C(F)(F)F)nc2)c1` [Compound 108, N-(3-((2-((1-methyl-1H-pyrazol-4-yl)amino)-5-(6-(trifluoromethyl)pyridin-3-yl)pyrimidin-4-yl)oxy)phenyl)acrylamide], for which the GI50 in experiment [1] is 104 nM; in experiment [2], 56 nM; in experiment [3], 294 nM; in experiment [4], 300 nM. The IC50 in the experiment on A431 cells (setting [5]) was found to be 341 nM.
As to `C=CC(=O)Nc1ccc(F)c(Nc2nc(Nc3cnn(C)c3)ncc2-c2ccnc(C(F)(F)F)c2)c1` [Compound 83, N-(4-fluoro-3-((2-((1-methyl-1H-pyrazol-4-yl)amino)-5-(2-(trifluoromethyl)pyridin-4-yl)pyrimidin-4-yl)amino)phenyl)acrylamide], the GI50 was 61 nM in experiment [1], 88 nM in experiment [2], 51 nM in experiment [3] and 255 nM in experiment [4]. In addition, in the experiment with A431 cells (setting [5]), the IC50 turned out to be 53 nM.
Consider `C=CC(=O)Nc1cccc(Nc2nc(Nc3cnn(C)c3)ncc2-c2ccc(OC(F)F)cc2)c1` [Compound 142, N-(3-((5-(4-(difluoromethoxy)phenyl)-2-((1-methyl-1H-pyrazol-4-yl)amino)pyrimidin-4-yl)amino)phenyl)acrylamide trifluoroacetate], for which the GI50 in experiment [1] was 16 nM; in experiment [2] it was 34 nM; in experiment [3], 24 nM; in experiment [4] it was 50 nM. In addition, the IC50 in the experiment on A431 cells (setting [5]) turned out to be 169 nM.
Regarding `C=CC(=O)Nc1ccc(F)c(Nc2nc(Nc3cn(CCN(C)C)nc3Cl)ncc2-c2ccc(C(F)(F)F)cc2)c1` [Compound 221, N-(3-((2-((3-chloro-1-(2-(dimethylamino)ethyl)-1H-pyrazol-4-yl)amino)-5-(4-(trifluoromethyl)phenyl)pyrimidin-4-yl)amino)-4-fluorophenyl)acrylamide], the GI50 in experiment [1] was determined as 123 nM; in experiment [2] it was 297 nM; in experiment [3] it was 225 nM; in experiment [4] it was 298 nM. In the experiment on A431 cells (setting [6]), the IC50 is 68 nM.
Turning to `C=CC(=O)Nc1cccc(Oc2nc(Nc3cnn(C)c3)ncc2-c2ccc(C(F)F)cc2)c1` [Compound 105, N-(3-((5-(4-(difluoromethyl)phenyl)-2-((1-methyl-1H-pyrazol-4-yl)amino)pyrimidin-4-yl)oxy)phenyl)acrylamide], the GI50 worked out at 37 nM in experiment [1], 49 nM in experiment [2], 75 nM in experiment [3] and 105 nM in experiment [4]. Besides, the IC50 with A431 cells (setting [5]) amounted to 171 nM.
In the same order, the values of `C=CC(=O)Nc1ccc(F)c(Nc2nc(Nc3cnn(C)c3)ncc2-c2cncc(C)c2)c1` [Compound 67, N-(4-fluoro-3-((2-((1-methyl-1H-pyrazol-4-yl)amino)-5-(5-methylpyridin-3-yl)pyrimidin-4-yl)amino)phenyl)acrylamide] are 30 nM, 36 nM, 41 nM, 26 nM and 120 nM.
On to `C=CC(=O)Nc1ccc(F)c(Nc2nc(Nc3cnn(C)c3)ncc2-c2ccnc(OC(F)F)c2)c1` [Compound 71, N-(3-((5-(2-(difluoromethoxy)pyridin-4-yl)-2-((1-methyl-1H-pyrazol-4-yl)amino)pyrimidin-4-yl)amino)-4-fluorophenyl)acrylamide], for which the GI50 in experiment [1] was determined as 107 nM; in experiment [2], 107 nM; in experiment [3], 103 nM; in experiment [4] it was 226 nM. Besides, the 50% inhibitory concentration (IC50) with A431 cells (setting [5]) amounted to 150 nM.
On to `C=CC(=O)Nc1cccc(Nc2nc(Nc3cnn(C)c3)ncc2-c2cncc(C(F)F)c2)c1` [Compound 144, N-(3-((5-(5-(difluoromethyl)pyridin-3-yl)-2-((1-methyl-1H-pyrazol-4-yl)amino)pyrimidin-4-yl)amino)phenyl)acrylamide trifluoroacetate], for which the GI50 was determined as 37 nM in experiment [1], 70 nM in experiment [2], 101 nM in experiment [3] and 38 nM in experiment [4]. Besides, the IC50 with A431 cells (setting [5]) came out at 122 nM.
For `C=CC(=O)Nc1ccc(F)c(Nc2nc(Nc3cnn(C)c3)ncc2-c2ccc(C(F)F)nc2)c1` [Compound 106, N-(3-((5-(6-(difluoromethyl)pyridin-3-yl)-2-((1-methyl-1H-pyrazol-4-yl)amino)pyrimidin-4-yl)amino)-4-fluorophenyl)acrylamide], the GI50 in experiment [1] is 16 nM; in experiment [2], 35 nM; in experiment [3], 25 nM; in experiment [4] it was 38 nM. Further, the IC50 with A431 cells (setting [5]) is 94 nM.
Take `C=CC(=O)Nc1ccc(F)c(Nc2nc(Nc3cnn(C)c3)ncc2-c2ccccc2F)c1` [Compound 90, N-(4-fluoro-3-((5-(2-fluorophenyl)-2-((1-methyl-1H-pyrazol-4-yl)amino)pyrimidin-4-yl)amino)phenyl)acrylamide]: the GI50 in experiment [1] stood at 103 nM; in experiment [2], 237 nM; in experiment [3], 103 nM; in experiment [4], 358 nM. Moreover, in the experiment with A431 cells (setting [5]), the IC50 came to 320 nM.
For the compound `[2H]C([2H])=CC(=O)Nc1ccc(F)c(Nc2nc(Nc3cnn(C([2H])([2H])[2H])c3)ncc2-c2ccc(C(F)(F)F)cc2)c1` [Compound 248, N-(4-fluoro-3-((2-((1-(methyl-d3)-1H-pyrazol-4-yl)amino)-5-(4-(trifluoromethyl)phenyl)pyrimidin-4-yl)amino)phenyl)acrylamide-3,3-d2], the GI50 was found to be 109 nM in experiment [1], 143 nM in experiment [2], 43 nM in experiment [3] and 250 nM in experiment [4]. Also, in the experiment with A431 cells (setting [6]), the IC50 came to 222 nM.
For the compound `C=CC(=O)Nc1ccc(F)c(Nc2nc(Nc3cnn(C)c3)ncc2-c2ccc(F)nc2)c1` [Compound 100, N-(4-fluoro-3-((5-(6-fluoropyridin-3-yl)-2-((1-methyl-1H-pyrazol-4-yl)amino)pyrimidin-4-yl)amino)phenyl)acrylamide], the GI50 in experiment [1] is 38 nM; in experiment [2], 72 nM; in experiment [3], 53 nM; in experiment [4], 203 nM. In the experiment with A431 cells (setting [5]), the IC50 was 472 nM.
As to `C=CC(=O)Nc1cccc(Oc2nc(Nc3cnn(C)c3)ncc2-c2ccc(C)nc2)c1` [Compound 186, N-(3-((2-((1-methyl-1H-pyrazol-4-yl)amino)-5-(6-methylpyridin-3-yl)pyrimidin-4-yl)oxy)phenyl)acrylamide], the GI50 in experiment [1] came out at 114 nM; in experiment [2] it was 90 nM; in experiment [3], 106 nM; in experiment [4], 175 nM. Also, the IC50 in the experiment with A431 cells (setting [5]) was 170 nM.
